Experimental findings from US20240245652A1, “METHODS AND COMPOSITIONS FOR MANAGING PAIN COMPRISING DEXMEDETOMIDINE TRANSDERMAL COMPOSITIONS” (Teikoku Pharma USA, Inc., priority 2013, published 2024) are described below.

Like-named read-outs stand apart in the source and are kept apart here.

Regarding `Cc1cccc([C@H](C)c2cnc[nH]2)c1C` [dexmedetomidine, Dexmedetomidine], the solubility of dexmedetomidine entry was “less than 2%” (in Duro-Tak 87-2979); 10-15% (in Duro-Tak 387/87-2353); “less than 1%” (in hydroxyl functionalized acrylate polymer); 5 to 10% (in lauryl lactate); around 60% (in levulinic acid); around 40% (in oleic acid). Moreover, the solubility of dexmedetomidine (in propylene glycolmonolaurate) was 5 to 10%.
